Experimental data taken from ChEMBL document CHEMBL1145468, “Serum differentially alters the antifungal properties of echinocandin drugs” (Antimicrob Agents Chemother, 2007).
Converted amounts (≈) assume the structure as drawn. *1 amine or outer side, *2 acyl side, *3 side chain or, on linkers, in order; H or OH if unused. Where a SMILES comes first, the peptide text is derived from it. Bridges are numbered along the chain shown (N, C = ends). [ ]: non-standard residue; d: D form. The star is where a group is joined. hTyr(3S-OH,4S-OH,3'-OSO3H) = N[C@H](C(=O)O)[C@H](O)[C@@H](O)c1ccc(O)c(OS(=O)(=O)O)c1; pTerphenylCO(4''-OnC5H11) = CCCCCOc1ccc(-c2ccc(-c3ccc(C(=O)*)cc3)cc2)cc1; Orn(4R-OH,5R-OH) = O=C([C@H](C[C@@H](O)[C@@H](O)N[*:3])N[*:1])[*:2]; hTyr(3S-OH,4S-OH) = N[C@H](C(=O)O)[C@H](O)[C@@H](O)c1ccc(O)cc1; Pro(3S-OH,4S-Me) = C[C@H]1CN[C@H](C(=O)O)[C@H]1O; X1 = CCCCCOc1ccc(-c2cc(-c3ccc(C(=O)*)cc3)no2)cc1; Gln(3R-OH) = NC(=O)C[C@@H](O)[C@H](N)C(=O)O; Hyp = O=C(O)[C@@H]1C[C@@H](O)CN1

Assays:
[1] = Inhibition of glucan synthase in Aspergillus fumigatus MF5668 in presence of 20% human serum
Glucan synthase [2] = target: T1, Glucan synthase (Candida albicans, UniProt O13423); experiment: Inhibition of glucan synthase in Candida albicans ATCC 36082
T1 sequence (O13423 whole entry): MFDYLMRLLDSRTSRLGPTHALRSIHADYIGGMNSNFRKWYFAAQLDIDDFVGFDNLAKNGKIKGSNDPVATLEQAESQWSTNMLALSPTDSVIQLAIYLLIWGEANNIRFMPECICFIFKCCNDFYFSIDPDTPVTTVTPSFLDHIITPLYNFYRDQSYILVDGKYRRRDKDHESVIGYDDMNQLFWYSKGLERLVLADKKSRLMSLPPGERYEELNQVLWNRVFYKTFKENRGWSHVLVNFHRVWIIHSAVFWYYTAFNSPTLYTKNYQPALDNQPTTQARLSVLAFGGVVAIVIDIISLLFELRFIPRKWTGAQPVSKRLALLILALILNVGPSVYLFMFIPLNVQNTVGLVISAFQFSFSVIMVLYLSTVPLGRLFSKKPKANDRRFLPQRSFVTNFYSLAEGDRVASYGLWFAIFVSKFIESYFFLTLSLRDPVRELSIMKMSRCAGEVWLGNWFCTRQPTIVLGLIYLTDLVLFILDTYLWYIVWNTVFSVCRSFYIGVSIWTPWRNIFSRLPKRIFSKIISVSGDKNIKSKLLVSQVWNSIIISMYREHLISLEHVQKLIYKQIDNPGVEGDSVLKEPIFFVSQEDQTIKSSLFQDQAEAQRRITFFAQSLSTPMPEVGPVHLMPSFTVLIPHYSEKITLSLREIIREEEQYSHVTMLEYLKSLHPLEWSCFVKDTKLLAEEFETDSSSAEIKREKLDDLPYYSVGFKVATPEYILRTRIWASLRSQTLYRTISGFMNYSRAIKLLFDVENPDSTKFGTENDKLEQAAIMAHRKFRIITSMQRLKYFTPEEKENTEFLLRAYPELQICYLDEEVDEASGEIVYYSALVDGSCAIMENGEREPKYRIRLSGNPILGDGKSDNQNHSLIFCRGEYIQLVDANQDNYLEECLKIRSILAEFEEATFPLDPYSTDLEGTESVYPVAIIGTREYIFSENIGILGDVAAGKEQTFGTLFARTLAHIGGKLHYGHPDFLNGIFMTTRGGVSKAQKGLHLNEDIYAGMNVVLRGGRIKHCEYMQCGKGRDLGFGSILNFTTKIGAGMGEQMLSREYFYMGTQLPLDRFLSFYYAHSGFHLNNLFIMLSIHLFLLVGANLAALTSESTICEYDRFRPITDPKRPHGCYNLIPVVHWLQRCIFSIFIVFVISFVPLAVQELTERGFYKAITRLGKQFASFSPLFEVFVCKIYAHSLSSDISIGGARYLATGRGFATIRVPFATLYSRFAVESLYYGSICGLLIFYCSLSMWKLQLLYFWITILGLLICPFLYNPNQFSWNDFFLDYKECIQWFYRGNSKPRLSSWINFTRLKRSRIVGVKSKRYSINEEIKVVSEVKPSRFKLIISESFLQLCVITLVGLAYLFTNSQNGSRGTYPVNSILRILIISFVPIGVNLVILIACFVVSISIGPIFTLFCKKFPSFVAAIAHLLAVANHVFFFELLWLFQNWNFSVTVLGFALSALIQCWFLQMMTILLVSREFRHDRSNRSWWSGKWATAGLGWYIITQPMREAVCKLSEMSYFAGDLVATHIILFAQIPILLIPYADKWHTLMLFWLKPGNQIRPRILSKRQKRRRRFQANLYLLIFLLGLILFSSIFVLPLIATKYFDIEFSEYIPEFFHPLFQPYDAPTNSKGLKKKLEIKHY

Glucan synthase [3] = target: T1, Glucan synthase; experiment: Inhibition of glucan synthase in Candida albicans 36082 assessed as incorporation of [3H]uridine diphosphoglucose in presence of 50% serum
Pichia kudriavzevii = experiment: Ratio of MIC for Candida krusei to MIC for Candida krusei in presence of 50% human serum; type: functional
Glucan synthase [4] = target: T1, Glucan synthase; experiment: Inhibition of glucan synthase in Candida albicans 36082 assessed as incorporation of [3H]uridine diphosphoglucose
Glucan synthase [5] = target: T1, Glucan synthase; experiment: Inhibition of glucan synthase in Candida albicans ATCC 90028 in presence of 50% human serum
[6] = Inhibition of glucan synthase in Aspergillus fumigatus ATCC 13073
Aspergillus flavus = experiment: Ratio of MIC for Aspergillus flavus to MIC for Aspergillus flavus in presence of 50% human serum; type: functional
[7] = Inhibition of glucan synthase in Aspergillus fumigatus R21
[8] = Inhibition of glucan synthase in Aspergillus fumigatus ATCC 13073 in presence of 10% human serum
[9] = Inhibition of glucan synthase in Aspergillus fumigatus R21 in presence of 20% human serum
Aspergillus fumigatus = experiment: Ratio of MIC for Aspergillus fumigatus to MIC for Aspergillus fumigatus in presence of 50% human serum; type: functional
Glucan synthase [10] = target: T1, Glucan synthase; experiment: Inhibition of glucan synthase in Candida albicans ATCC 90028 in presence of 20% human serum
[11] = Inhibition of glucan synthase in Aspergillus fumigatus MF5668 in presence of 10% human serum
[12] = Inhibition of glucan synthase in Aspergillus fumigatus MF5668 in presence of 50% human serum
Glucan synthase [13] = target: T1, Glucan synthase; experiment: Inhibition of glucan synthase in Candida albicans ATCC 90028 in presence of 10% human serum
Candida albicans [14] = experiment: Ratio of MIC for Candida albicans to MIC for Candida albicans in presence of 50% human serum; type: functional
Glucan synthase [15] = target: T1, Glucan synthase; experiment: Inhibition of glucan synthase in Candida albicans SC5314 in presence of 50% human serum
Glucan synthase [16] = target: T1, Glucan synthase; experiment: Inhibition of glucan synthase in Candida albicans ATCC 36082 in presence of 20% human serum
Glucan synthase [17] = target: T1, Glucan synthase; experiment: Inhibition of glucan synthase in Candida albicans SC5314 in presence of 10% human serum
[18] = Inhibition of glucan synthase in Aspergillus fumigatus ATCC 13073 in presence of 20% human serum
Aspergillus niger = experiment: Ratio of MIC for Aspergillus flavus to MIC for Aspergillus niger in presence of 50% human serum; type: functional
[19] = Inhibition of glucan synthase in Aspergillus fumigatus MF5668
Glucan synthase [20] = target: T1, Glucan synthase; experiment: Inhibition of glucan synthase in Candida albicans 36082 assessed as incorporation of [3H]uridine diphosphoglucose in presence of 10% serum
Aspergillus terreus = experiment: Ratio of MIC for Aspergillus flavus to MIC for Aspergillus terreus in presence of 50% human serum; type: functional
[21] = Inhibition of glucan synthase in Aspergillus fumigatus R21 in presence of 10% human serum
Glucan synthase [22] = target: T1, Glucan synthase; experiment: Inhibition of glucan synthase in Candida albicans SC5314
Glucan synthase [23] = target: T1, Glucan synthase; experiment: Inhibition of glucan synthase in Candida albicans 36082 assessed as incorporation of [3H]uridine diphosphoglucose in presence of 20% serum
Glucan synthase [24] = target: T1, Glucan synthase; experiment: Inhibition of glucan synthase in Candida albicans SC5314 in presence of 20% human serum
Glucan synthase [25] = target: T1, Glucan synthase; experiment: Inhibition of glucan synthase in Candida albicans ATCC 36082 in presence of 10% human serum
Candida tropicalis = experiment: Ratio of MIC for Candida tropicalis to MIC for Candida tropicalis in presence of 50% human serum; type: functional
[26] = Inhibition of glucan synthase in Aspergillus fumigatus R21 in presence of 50% human serum
Candida albicans [27] = experiment: Antifungal activity against Candida albicans 36082 infected BALB/c mouse assessed as fungal kidney burden after 14 days; type: functional; conditions: 336 h
Candida parapsilosis = experiment: Ratio of MIC for Candida parapsilosis to MIC for Candida parapsilosis in presence of 50% human serum; type: functional
Nakaseomyces glabratus = experiment: Ratio of MIC for Candida glabrata to MIC for Candida glabrata in presence of 50% mouse serum; type: functional
Glucan synthase [28] = target: T1, Glucan synthase; experiment: Inhibition of glucan synthase in Candida albicans ATCC 90028
[29] = Inhibition of glucan synthase in Aspergillus fumigatus ATCC 13073 in presence of 50% human serum
Glucan synthase [30] = target: T1, Glucan synthase; experiment: Inhibition of glucan synthase in Candida albicans ATCC 36082 in presence of 50% human serum

Compound	IC50 [1] [ng/mL]	IC50 (Glucan synthase [2]) [µM]	Ratio (Pichia kudriavzevii)	IC50 (Glucan synthase [5]) [µM]	IC50 [6] [ng/mL]	Ratio (Aspergillus flavus)	IC50 [7] [ng/mL]	IC50 [8] [ng/mL]	IC50 [9] [ng/mL]	Ratio (Aspergillus fumigatus)	IC50 (Glucan synthase [10]) [µM]	IC50 [11] [ng/mL]	IC50 [12] [ng/mL]	IC50 (Glucan synthase [13]) [µM]	Ratio (Candida albicans [14])	IC50 (Glucan synthase [15]) [µM]	IC50 (Glucan synthase [16]) [µM]	IC50 (Glucan synthase [17]) [µM]	IC50 [18] [ng/mL]	Ratio (Aspergillus niger)	also measured
CCCCCOc1ccc(-c2ccc(-c3ccc(C(=O)N[C@H]4C[C@@H](O)[C@@H](O)NC(=O)[C@@H]5[C@@H](O)[C@@H](C)CN5C(=O)[C@H]([C@@H](C)O)NC(=O)[C@H]([C@H](O)[C@@H](O)c5ccc(O)cc5)NC(=O)[C@@H]5C[C@@H](O)CN5C(=O)[C@H]([C@@H](C)O)NC4=O)cc3)cc2)cc1 [ANIDULAFUNGIN] ({pTerphenylCO(4''-OnC5H11)}-[Orn(4R-OH,5R-OH)]T[Hyp][hTyr(3S-OH,4S-OH)]T[Pro(3S-OH,4S-Me)]; lactam 1-C)	6.9	0.0162	32	0.0217	13.3 (≈ 11.7 nM)	32	0.75 (≈ 0.658 nM)	21.4	3.1	32	0.0163	5.5	28.1	0.00414	16	0.0781	0.0627	0.0134	77.4	32	IC50 (Glucan synthase [3]): 0.0258 µM; IC50 (Glucan synthase [4]): 0.00088 µM; IC50 [19]: 0.29 ng/mL (≈ 0.254 nM); IC50 (Glucan synthase [20]): 0.00414 µM; Ratio (Aspergillus terreus): 16; IC50 [21]: 1.9 ng/mL; IC50 (Glucan synthase [22]): 0.015 µM; IC50 (Glucan synthase [23]): 0.0164 µM; IC50 (Glucan synthase [24]): 0.0655 µM; IC50 (Glucan synthase [25]): 0.021 µM; Ratio (Candida tropicalis): 128; IC50 [26]: 11.9 ng/mL; ED90 (Candida albicans [27]): 1.17 mg/kg; ED99 (Candida albicans [27]): 1.36 mg/kg; Ratio (Candida parapsilosis): 8; Ratio (Nakaseomyces glabratus): 64; IC50 (Glucan synthase [28]): 0.000877 µM
CC[C@H](C)C[C@H](C)CCCCCCCCC(=O)N[C@H]1C[C@@H](O)[C@@H](NCCN)NC(=O)[C@@H]2[C@@H](O)CCN2C(=O)[C@H]([C@H](O)CCN)NC(=O)[C@H]([C@H](O)[C@@H](O)c2ccc(O)cc2)NC(=O)[C@@H]2C[C@@H](O)CN2C(=O)[C@H]([C@@H](C)O)NC1=O [CASPOFUNGIN]	3.2	0.000823	8	0.00576	2 (≈ 1.83 nM)	8	1.6 (≈ 1.46 nM)	2.8	3.6	11	0.00192	1	4.8	0.00119	2	0.0736	0.00485	0.0247	5.9	8	IC50 (Glucan synthase [3]): 0.00569 µM; IC50 (Glucan synthase [4]): 0.000302 µM; IC50 [29]: 9.4 ng/mL; IC50 [19]: 1.1 ng/mL (≈ 1.01 nM); IC50 (Glucan synthase [20]): 0.00121 µM; Ratio (Aspergillus terreus): 4; IC50 [21]: 2.7 ng/mL; IC50 (Glucan synthase [22]): 0.0134 µM; IC50 (Glucan synthase [23]): 0.0019 µM; IC50 (Glucan synthase [24]): 0.0338 µM; IC50 (Glucan synthase [25]): 0.00256 µM; Ratio (Candida tropicalis): 4; IC50 [26]: 10.3 ng/mL; IC50 (Glucan synthase [30]): 0.00796 µM; ED90 (Candida albicans [27]): 1.05 mg/kg; ED99 (Candida albicans [27]): 1.1 mg/kg; Ratio (Candida parapsilosis): 4; Ratio (Nakaseomyces glabratus): 4; IC50 (Glucan synthase [28]): 0.000274 µM
CCCCCOc1ccc(-c2cc(-c3ccc(C(=O)N[C@H]4C[C@@H](O)[C@@H](O)NC(=O)[C@@H]5[C@@H](O)[C@@H](C)CN5C(=O)[C@H]([C@H](O)CC(N)=O)NC(=O)[C@H]([C@H](O)[C@@H](O)c5ccc(O)c(OS(=O)(=O)O)c5)NC(=O)[C@@H]5C[C@@H](O)CN5C(=O)[C@H]([C@@H](C)O)NC4=O)cc3)no2)cc1 [MICAFUNGIN] (X1-[Orn(4R-OH,5R-OH)]T[Hyp][hTyr(3S-OH,4S-OH,3'-OSO3H)][Gln(3R-OH)][Pro(3S-OH,4S-Me)]; lactam 1-C)	3.3	0.0085	133	0.071	2 (≈ 1.57 nM)	33	3.7 (≈ 2.91 nM)	4.7	10.3	64	0.0394	3.2	7.6	0.0224	64	0.0706	0.0247	0.0257	7.5	133	IC50 [29]: 9.8 ng/mL; IC50 [19]: 2.2 ng/mL (≈ 1.73 nM); Ratio (Aspergillus terreus): 32; IC50 [21]: 6.2 ng/mL; IC50 (Glucan synthase [22]): 0.0212 µM; IC50 (Glucan synthase [24]): 0.0398 µM; IC50 (Glucan synthase [25]): 0.0187 µM; Ratio (Candida tropicalis): 128; IC50 [26]: 23.2 ng/mL; IC50 (Glucan synthase [30]): 0.0449 µM; ED90 (Candida albicans [27]): 1.97 mg/kg; ED99 (Candida albicans [27]): 3.71 mg/kg; Ratio (Candida parapsilosis): 8; Ratio (Nakaseomyces glabratus): 64; IC50 (Glucan synthase [28]): 0.0142 µM
